Data taken from patent publication US9187472B2 (AbbVie Inc., priority 2012, dated 2015).

Tested on: PC3 cells
Assay: NAMPT Cell Proliferation Assay
Format: cell-based
Details: Homo sapiens, PC-3, 120 h, 5 days incubation, cell viability by Cell Titer Glo
Procedure: NAMPT Cell Proliferation Assay
PC3 cells were seeded in 96-well black plates (Corning #3904) at 500 cells/well in 90 μl of RPMI media containing 10% heat-inactivated FBS and incubated overnight at 37° C. and 5% CO2 to allow cells to attach to wells. The following day, test compounds were serially diluted in neat DMSO to 1000× final concentrations prior to dilution with RPMI media to 10× and 1% DMSO. Ten μL of the 10× compounds were then transferred to wells containing cells to produce a dose response of 10-fold dilutions from 10 μM to 1×10^−5 μM. Cells were incubated for 5 days at 37° C. and 5% CO2, then cell viability was measured using Cell Titer Glo reagent (Promega #G7571). Percent inhibition values were calculated and fitted to a sigmoidal dose response curves using Assay Explorer software to determine IC50s.

Compound	IC50
CC(C)Cn1nccc1-c1ccc(C(=O)NCc2ccn3ccnc3c2)s1 [Example 899, N-(imidazo[1,2-a]pyridin-7-ylmethyl)-5-[1-(2-methylpropyl)-1H-pyrazol-5-yl]thiophene-2-carboxamide]	181 nM
CC(C)(C)OC(=O)N1CCC(c2ccc(NC(=O)Cc3ccn4ccnc4c3)cc2)CC1 [Example 900, tert-butyl 4-{4-[(imidazo[1,2-a]pyridin-7-ylacetyl)amino]phenyl}piperidine-1-carboxylate]	17.4 nM
O=C(CC1CCCC1)Nc1ccc(C(=O)NCc2cn3c(Cl)cnc3cn2)cc1 [Example 901, N-[(3-chloroimidazo[1,2-a]pyrazin-6-yl)methyl]-4-[(cyclopentylacetyl)amino]benzamide]	865 nM
O=C(Cc1ccn2ccnc2c1)Nc1ccc(C2CCN(C(=O)c3ccc(F)cc3F)CC2)cc1 [Example 902, N-{4-[1-(2,4-difluorobenzoyl)piperidin-4-yl]phenyl}-2-(imidazo[1,2-a]pyridin-7-yl)acetamide]	10.8 nM
CC(C)C(=O)N1CCC(c2ccc(NC(=O)Cc3ccn4ccnc4c3)cc2)CC1 [Example 903, 2-(imidazo[1,2-a]pyridin-7-yl)-N-{4-[1-(2-methylpropanoyl)piperidin-4-yl]phenyl}acetamide]	35.2 nM
CC(C)C(=O)N1CCC(c2ccc(NC(=O)NCc3ccn4c(Cl)cnc4c3)cc2)CC1 [Example 904, 1-[(3-chloroimidazo[1,2-a]pyridin-7-yl)methyl]-3-{4-[1-(2-methylpropanoyl)piperidin-4-yl]phenyl}urea]	282 nM
O=C(CC1CCCC1)Nc1ccc(C(=O)NCc2cn3ccnc3cn2)c(F)c1 [Example 908, 4-[(cyclopentylacetyl)amino]-2-fluoro-N-(imidazo[1,2-a]pyrazin-6-ylmethyl)benzamide]	11.2 nM
O=C(NCc1ccn2ccnc2c1)c1ccc(C(=O)NCc2cc(F)ccc2F)cc1 [Example 909, N-(2,5-difluorobenzyl)-N′-(imidazo[1,2-a]pyridin-7-ylmethyl)benzene-1,4-dicarboxamide]	7210 nM
CC(C)C1CCCN1C(=O)c1ccc(C(=O)NCc2ccn3ccnc3c2)cc1 (centres unmarked) [Example 910, N-(imidazo[1,2-a]pyridin-7-ylmethyl)-4-{[2-(propan-2-yl)pyrrolidin-1-yl]carbonyl}benzamide]	> 10000 nM
CC(C)(C)Cc1nnc(-c2ccc(NC(=O)Cc3ccn4ccnc4c3)cc2)o1 [Example 911, N-{4-[5-(2,2-dimethylpropyl)-1,3,4-oxadiazol-2-yl]phenyl}-2-(imidazo[1,2-a]pyridin-7-yl)acetamide]	42.5 nM
O=C(NCc1ccn2ccnc2c1)c1ccc(C2CCN(C(=O)c3cccnc3Cl)CC2)cc1 [Example 913, 4-{1-[(2-chloropyridin-3-yl)carbonyl]piperidin-4-yl}-N-(imidazo[1,2-a]pyridin-7-ylmethyl)benzamide]	14.4 nM
CC(C)=CC(=O)N1CCC(c2ccc(C(=O)NCc3ccn4ccnc4c3)cc2)CC1 [Example 914, N-(imidazo[1,2-a]pyridin-7-ylmethyl)-4-[1-(3-methylbut-2-enoyl)piperidin-4-yl]benzamide]	77.2 nM
COc1ccc(C(=O)N2CCC(c3ccc(C(=O)NCc4ccn5ccnc5c4)cc3)CC2)cc1F [Example 915, 4-[1-(3-fluoro-4-methoxybenzoyl)piperidin-4-yl]-N-(imidazo[1,2-a]pyridin-7-ylmethyl)benzamide]	174 nM
O=C(NCc1ccn2ccnc2c1)c1ccc(C2CCN(C(=O)COc3ccc(F)cc3)CC2)cc1 [Example 918, 4-{1-[(4-fluorophenoxy)acetyl]piperidin-4-yl}-N-(imidazo[1,2-a]pyridin-7-ylmethyl)benzamide]	233 nM
COc1cc(OC)cc(C(=O)N2CCC(c3ccc(C(=O)NCc4ccn5ccnc5c4)cc3)CC2)c1 [Example 919, 4-[1-(3,5-dimethoxybenzoyl)piperidin-4-yl]-N-(imidazo[1,2-a]pyridin-7-ylmethyl)benzamide]	101 nM
COc1ccccc1CC(=O)N1CCC(c2ccc(C(=O)NCc3ccn4ccnc4c3)cc2)CC1 [Example 921, N-(imidazo[1,2-a]pyridin-7-ylmethyl)-4-{1-[(2-methoxyphenyl)acetyl]piperidin-4-yl}benzamide]	157 nM
O=C(NCc1ccn2ccnc2c1)c1ccc(C2CCN(C(=O)C(CO)c3ccccc3)CC2)cc1 (centres unmarked) [Example 922, 4-[1-(3-hydroxy-2-phenylpropanoyl)piperidin-4-yl]-N-(imidazo[1,2-a]pyridin-7-ylmethyl)benzamide]	9.95 nM
CC(=O)c1ccccc1C(=O)N1CCC(c2ccc(C(=O)NCc3ccn4ccnc4c3)cc2)CC1 [Example 924, 4-[1-(2-acetylbenzoyl)piperidin-4-yl]-N-(imidazo[1,2-a]pyridin-7-ylmethyl)benzamide]	18 nM
CC(C(=O)N1CCC(c2ccc(C(=O)NCc3ccn4ccnc4c3)cc2)CC1)c1ccccc1 (centres unmarked) [Example 926, N-(imidazo[1,2-a]pyridin-7-ylmethyl)-4-[1-(2-phenylpropanoyl)piperidin-4-yl]benzamide]	9.69 nM
CCN(CC)CCC(=O)N1CCC(c2ccc(C(=O)NCc3ccn4ccnc4c3)cc2)CC1 [Example 928, 4-[1-(N,N-diethyl-beta-alanyl)piperidin-4-yl]-N-(imidazo[1,2-a]pyridin-7-ylmethyl)benzamide]	106 nM
CC(C)CS(=O)(=O)CC(=O)N1CCC(c2ccc(C(=O)NCc3ccn4ccnc4c3)cc2)CC1 [Example 929, N-(imidazo[1,2-a]pyridin-7-ylmethyl)-4-(1-{[(2-methylpropyl)sulfonyl]acetyl}piperidin-4-yl)benzamide]	24.7 nM
Cc1cc(C(=O)N2CCC(c3ccc(C(=O)NCc4ccn5ccnc5c4)cc3)CC2)cc(Cl)n1 [Example 932, 4-{1-[(2-chloro-6-methylpyridin-4-yl)carbonyl]piperidin-4-yl}-N-(imidazo[1,2-a]pyridin-7-ylmethyl)benzamide]	30.3 nM
COc1cccc(CC(=O)N2CCC(c3ccc(C(=O)NCc4ccn5ccnc5c4)cc3)CC2)c1 [Example 933, N-(imidazo[1,2-a]pyridin-7-ylmethyl)-4-{1-[(3-methoxyphenyl)acetyl]piperidin-4-yl}benzamide]	71.7 nM

Stronger by IC50, values ahead:

IC50	Compound
0.994 nM	O=C(Cc1ccn2ccnc2c1)Nc1ccc(C2CCN(C(=O)c3ccccc3F)CC2)cc1 [Example 905, N-{4-[1-(2-fluorobenzoyl)piperidin-4-yl]phenyl}-2-(imidazo[1,2-a]pyridin-7-yl)acetamide]
4.17 nM	CC(C)Cc1cc(-c2ccc(C(=O)NCc3ccn4ccnc4c3)s2)n(C)n1 [Example 906, N-(imidazo[1,2-a]pyridin-7-ylmethyl)-5-[1-methyl-3-(2-methylpropyl)-1H-pyrazol-5-yl]thiophene-2-carboxamide]
7.09 nM	CC(C)Cc1cc(-c2ccc(C(=O)NCc3ccn4ccnc4c3)s2)n(Cc2ccccc2)n1 [Example 907, 5-[1-benzyl-3-(2-methylpropyl)-1H-pyrazol-5-yl]-N-(imidazo[1,2-a]pyridin-7-ylmethyl)thiophene-2-carboxamide]
8.72 nM	CC(C)(C)OC(=O)N1CCC(c2ccc(NC(=O)NCc3ccn4ccnc4c3)c(F)c2)CC1 [Example 912, tert-butyl 4-(3-fluoro-4-{[(imidazo[1,2-a]pyridin-7-ylmethyl)carbamoyl]amino}phenyl)piperidine-1-carboxylate]
6.73 nM	CC1=C(C(=O)N2CCC(c3ccc(C(=O)NCc4ccn5ccnc5c4)cc3)CC2)CCC1 [Example 916, N-(imidazo[1,2-a]pyridin-7-ylmethyl)-4-{1-[(2-methylcyclopent-1-en-1-yl)carbonyl]piperidin-4-yl}benzamide]
6.79 nM	CCC(CC)C(=O)N1CCC(c2ccc(C(=O)NCc3ccn4ccnc4c3)cc2)CC1 [Example 917, 4-[1-(2-ethylbutanoyl)piperidin-4-yl]-N-(imidazo[1,2-a]pyridin-7-ylmethyl)benzamide]
7.94 nM	O=C(NCc1ccn2ccnc2c1)c1ccc(C2CCN(C(=O)C3CC=CCC3)CC2)cc1 (centres unmarked) [Example 920, 4-[1-(cyclohex-3-en-1-ylcarbonyl)piperidin-4-yl]-N-(imidazo[1,2-a]pyridin-7-ylmethyl)benzamide]
4.58 nM	Cc1cccc(C(=O)N2CCC(c3ccc(C(=O)NCc4ccn5ccnc5c4)cc3)CC2)c1 [Example 923, N-(imidazo[1,2-a]pyridin-7-ylmethyl)-4-[1-(3-methylbenzoyl)piperidin-4-yl]benzamide]
2.06 nM	COCc1ccccc1C(=O)N1CCC(c2ccc(C(=O)NCc3ccn4ccnc4c3)cc2)CC1 [Example 925, N-(imidazo[1,2-a]pyridin-7-ylmethyl)-4-{1-[2-(methoxymethyl)benzoyl]piperidin-4-yl}benzamide]
7.13 nM	COc1cccc(OC)c1C(=O)N1CCC(c2ccc(C(=O)NCc3ccn4ccnc4c3)cc2)CC1 [Example 927, 4-[1-(2,6-dimethoxybenzoyl)piperidin-4-yl]-N-(imidazo[1,2-a]pyridin-7-ylmethyl)benzamide]
2.09 nM	CC(Oc1ccccc1)C(=O)N1CCC(c2ccc(C(=O)NCc3ccn4ccnc4c3)cc2)CC1 (centres unmarked) [Example 930, N-(imidazo[1,2-a]pyridin-7-ylmethyl)-4-[1-(2-phenoxypropanoyl)piperidin-4-yl]benzamide]
6.77 nM	C[C@H]1CCCC[C@H]1OCC(=O)N1CCC(c2ccc(C(=O)NCc3ccn4ccnc4c3)cc2)CC1 [Example 931, N-(imidazo[1,2-a]pyridin-7-ylmethyl)-4-[1-({[(1R,2S)-2-methylcyclohexyl]oxy}acetyl)piperidin-4-yl]benzamide]
